Laboratory results published in patent US8084394B2, “Method for the control of harmful micro-organisms and insects in crop protection with means of dipole-electrical air-jet spray-technology, ozonated water and UV-C irradiation” (priority 2003, dated 2011).

Tests used:
[1] = cited from earlier work
[2] = stability (half-life) of ozone as gas and in water; format: physicochemical; conditions: new injection technique with inorganic wetting agent; threefold
Protocol: Ozone is a highly unstable molecule in gaseous form which disintegrated in a short period of time (half-life time ca. 20 minutes) again in oxygen.
With this new injection technique of the extensive mixing of ozone with the spray waters and with the combination of an inorganic wetting agent, the ozone concentration in the dissolved gas bubbles can be up to 17% and has a threefold capacity in the water (up to 1 hour) the fact that ozone gas is transforming to oxygen.
The half-life time of Ozone in water is approximately 2 minutes, in other words the ozone concentration in water is reduced by half every 2 minutes.

[3] = cited from earlier work; remark: listed apart in the source
microorganisms = conditions: cited from earlier work

## O=[O+][O-] [Ozone]
[1]
  exposition concentration unproblematic for permanent exposure: 0.1 mg per m3/air
[2]
  capacity (persistence) of ozone in the water: up to 1 hour
[3]; gaseous form, disintegration to oxygen
  half-life time: ca. 20 minutes
[3]; in water
  half-life time of Ozone in water: approximately 2 minutes
microorganisms; faster than chlorine
  speed of destruction of microorganisms relative to chlorine: 3125 times
microorganisms; more reactive than chlorine
  reactivity relative to chlorine: 51 times
